This passage reports T/C results from PubChem BioAssay AID330 (DTP/NCI, 2004).

Values joined by “and” are separate entries in the source; they are usually repeats but may differ in a detail not shown here. Equal values may be shown once. Toxic doses and inconclusive results are not listed.

The assay relates to P388 leukemia ip, CD2F1 mice, survival T/C. In words: NCI In Vivo Anticancer Drug Screen. Data for tumor model P388 Leukemia (intraperitoneal) in CD2F1 (CDF1) mice. The note with it: endpoint: median survival time, higher = longer survival. The method, boiled down:
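Mice carrying the transplanted tumor received test compound or vehicle. Survival was recorded in each group, and the value is the treated-group measurement divided by that of the vehicle-treated control group.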

The mark [1] stands for this setting: dose: 60.0 mg/kg/injection, schedule: Q01DX005 (ip), vehicle: saline with Tween-80.
Setting [2] is: dose: 120.0 mg/kg/injection, schedule: Q01DX005 (ip), vehicle: saline with Tween-80.
The mark [3] stands for this setting: dose: 240.0 mg/kg/injection, schedule: Q01DX005 (ip), vehicle: saline with Tween-80.
[4] abbreviates: dose: 12.5 mg/kg/injection, schedule: Q01DX005 (ip), vehicle: saline.
Where [5] appears, read: dose: 25.0 mg/kg/injection, schedule: Q01DX005 (ip), vehicle: saline.
The mark [6] stands for this setting: dose: 50.0 mg/kg/injection, schedule: Q01DX005 (ip), vehicle: saline.
Where [7] appears, read: dose: 12.5 mg/kg/injection, schedule: Q01DX005 (ip), vehicle: Klucel (hydroxypropylcellulose) (HPC).
The mark [8] stands for this setting: dose: 25.0 mg/kg/injection, schedule: Q01DX005 (ip), vehicle: Klucel (hydroxypropylcellulose) (HPC).
Where [9] appears, read: dose: 100.0 mg/kg/injection, schedule: Q01DX005 (ip), vehicle: Klucel (hydroxypropylcellulose) (HPC).
Where [10] appears, read: dose: 50.0 mg/kg/injection, schedule: Q01DX009 (ip), vehicle: saline with Tween-80.
The mark [11] stands for this setting: dose: 100.0 mg/kg/injection, schedule: Q01DX009 (ip), vehicle: saline with Tween-80.
The mark [12] stands for this setting: dose: 200.0 mg/kg/injection, schedule: Q01DX009 (ip), vehicle: saline with Tween-80.
[13] abbreviates: dose: 50.0 mg/kg/injection, schedule: Q01DX005 (ip), vehicle: Klucel (hydroxypropylcellulose) (HPC).
The mark [14] stands for this setting: dose: 50.0 mg/kg/injection, schedule: Q01DX009 (ip), vehicle: Klucel (hydroxypropylcellulose) (HPC).
The mark [15] stands for this setting: dose: 100.0 mg/kg/injection, schedule: Q01DX009 (ip), vehicle: Klucel (hydroxypropylcellulose) (HPC).

As for `N=C(N)c1ccc(/C=C\C=C/c2cc3cc(C(=N)N)ccc3o2)cc1`, the T/C (dose: 1.56 mg/kg/injection, schedule: Q04DX003 (ip), vehicle: saline with Tween-80) is 107 % of control; the T/C (dose: 3.12 mg/kg/injection, schedule: Q04DX003 (ip), vehicle: saline with Tween-80) was 122 % of control; the T/C (dose: 3.12 mg/kg/injection, schedule: Q04DX003 (ip), vehicle: saline) is 115 % of control; the T/C (dose: 12.5 mg/kg/injection, schedule: Q04DX003 (ip), vehicle: saline) was 124 % of control.

As for `CC(CN(C)C)OC(=O)C1(c2ccccc2)CCOc2ccccc21` (stereo unspecified), the T/C by setting is: under setting [1], 108 % of control; under setting [2], 108 % of control; under setting [3], 109 % of control.

As to `C[N+]1(C)C2CCC1CC(=O)C2`, the T/C is, setting by setting: (dose: 12.5 mg/kg/injection, schedule: Q01DX009 (ip), vehicle: suspension in saline) 107 % of control; (dose: 25.0 mg/kg/injection, schedule: Q01DX009 (ip), vehicle: suspension in saline) 107 % of control.

Consider `O=C(/C=C/c1c(-c2ccccc2)[nH]c2ccccc12)c1ccccc1[N+](=O)[O-]`, for which the T/C is, setting by setting: under setting [1], 95 % of control; under setting [2], 96 % of control; under setting [3], 92 % of control.

On to `C[C@@H]1CC[C@@]2(OC1)O[C@H]1C[C@H]3[C@@H]4CC(=O)C5=CC(=O)CC[C@]5(C)[C@H]4CC[C@]3(C)[C@H]1[C@@H]2C`, for which the T/C by setting is: (dose: 2.25 mg/kg/injection, schedule: Q01DX005 (ip), vehicle: Klucel (hydroxypropylcellulose) (HPC)) 101 % of control; (dose: 4.5 mg/kg/injection, schedule: Q01DX005 (ip), vehicle: Klucel (hydroxypropylcellulose) (HPC)) 100 % of control; (dose: 9.0 mg/kg/injection, schedule: Q01DX005 (ip), vehicle: Klucel (hydroxypropylcellulose) (HPC)) 97 % of control; (dose: 18.0 mg/kg/injection, schedule: Q01DX005 (ip), vehicle: Klucel (hydroxypropylcellulose) (HPC)) 89 % of control; (dose: 36.0 mg/kg/injection, schedule: Q01DX005 (ip), vehicle: Klucel (hydroxypropylcellulose) (HPC)) 88 % of control.

`Nc1cc(C(F)(F)F)ccc1S`: the T/C is 94 % of control (dose: 3.0 mg/kg/injection, schedule: Q01DX009 (ip), vehicle: DMSO); 103 % of control (dose: 6.0 mg/kg/injection, schedule: Q01DX009 (ip), vehicle: DMSO); 90 % of control (dose: 12.5 mg/kg/injection, schedule: Q01DX009 (ip), vehicle: DMSO).

`C=C(Cl)C(=NC(C)(C)C)Nc1ccccc1Cl`: the T/C reads like this: (dose: 6.25 mg/kg/injection, schedule: Q01DX005 (ip), vehicle: saline) 100 % of control; under setting [4], 117 % of control; under setting [5], 124 % of control; under setting [6], 114 % of control and 120 % of control; (dose: 100.0 mg/kg/injection, schedule: Q01DX005 (ip), vehicle: saline) 118 % of control.

For `CCON1CCC(OC(=O)CC)(c2ccccc2)C(C)C1` (stereo unspecified), the T/C (dose: 100.0 mg/kg/injection, schedule: Q01DX001 (ip), vehicle: saline) is 111 % of control and the T/C (dose: 200.0 mg/kg/injection, schedule: Q01DX001 (ip), vehicle: saline) is 98 % of control.

For `COC(=O)c1ccc(N=NN(C)CN=[N+]=[N-])cc1`, the T/C under setting [7] was 106 % of control; the T/C under setting [8] is 124 % of control; the T/C under setting [9] is 160 % of control and 172 % of control.

On to `CCCCN(CCCC)c1ccc(C(=N)c2ccc(N(CCCC)CCCC)cc2)cc1`, for which the T/C (dose: 6.25 mg/kg/injection, schedule: Q01DX005 (ip), vehicle: Klucel (hydroxypropylcellulose) (HPC)) is 108 % of control; the T/C under setting [7] was 108 % of control; the T/C under setting [8] was 117 % of control.

On to `CNC(=O)c1ccccc1C(O)c1ccc(C)cc1` (stereo unspecified), for which the T/C reads like this: under setting [10], 105 % of control; under setting [11], 99 % of control; under setting [12], 99 % of control.

For the compound `O=C(O)C1C(C(=O)O)C2C(=O)C=CC1N2Cc1ccccc1` (stereo unspecified), the T/C is 105 % of control under setting [7]; 99 % of control and 116 % of control under setting [8]; 112 % of control and 114 % of control and 115 % of control under setting [13]; 103 % of control and 118 % of control and 122 % of control under setting [9].

Regarding `Cc1nn(C(=O)c2c(-c3ccccc3)noc2C)c(C)c1N=Nc1cc(C(F)(F)F)cc(C(F)(F)F)c1`, the T/C under setting [10] is 87 % of control, the T/C under setting [11] was 87 % of control and the T/C under setting [12] was 97 % of control.

On to `CCCCN(CCCC)P1(=O)OP(=O)(N(CCCC)CCCC)OP(=O)(N(CCCC)CCCC)O1` (stereo unspecified), for which the T/C is 97 % of control under setting [4]; 101 % of control under setting [5]; 101 % of control and 96 % of control under setting [6].

With `CCC1(c2ccccc2)OCC(C2CCCCN2)O1` (stereo unspecified), the T/C reads like this: under setting [14], 95 % of control; under setting [15], 95 % of control.

For `COC(=O)[C@H]1[C@H]2C[C@@H]3c4[nH]c5ccccc5c4CCN3C[C@H]2C[C@@H](OC(=O)c2cc(OC)c(OC)c(OC)c2)[C@@H]1OC`, the T/C reads like this: (dose: 3.13 mg/kg/injection, schedule: Q01DX005 (ip), vehicle: saline with Tween-80) 105 % of control and 123 % of control; (dose: 6.25 mg/kg/injection, schedule: Q01DX005 (ip), vehicle: saline with Tween-80) 118 % of control (2×) and 124 % of control; (dose: 12.5 mg/kg/injection, schedule: Q01DX005 (ip), vehicle: saline with Tween-80) 114 % of control and 118 % of control and 124 % of control; (dose: 25.0 mg/kg/injection, schedule: Q01DX005 (ip), vehicle: saline with Tween-80) 111 % of control and 94 % of control and 97 % of control.

As for `CN(C)CCn1nc2n(c(=O)c1=O)CC(=O)N(C)c1ccc(Cl)cc1-2`, the T/C runs as follows: (dose: 100.0 mg/kg/injection, schedule: Q01DX001 (ip), vehicle: Klucel (hydroxypropylcellulose) (HPC)) 100 % of control; (dose: 200.0 mg/kg/injection, schedule: Q01DX001 (ip), vehicle: Klucel (hydroxypropylcellulose) (HPC)) 101 % of control; (dose: 400.0 mg/kg/injection, schedule: Q01DX001 (ip), vehicle: Klucel (hydroxypropylcellulose) (HPC)) 96 % of control.

Regarding `CCOC(=O)C1=C(N)OC(c2ccccc2)=C(C#N)C1c1ccccc1Cl` (stereo unspecified), the T/C is, setting by setting: under setting [13], 101 % of control; under setting [9], 113 % of control; (dose: 200.0 mg/kg/injection, schedule: Q01DX005 (ip), vehicle: Klucel (hydroxypropylcellulose) (HPC)) 97 % of control.

In the case of `O=C(OCc1ccccc1)ON1C(=O)C2C3C=CC(C3)C2C1=O` (stereo unspecified), the T/C is 115 % of control under setting [13] and 110 % of control under setting [9].

With `[CH3][Sn]([CH3])([Cl])[CH2]CC[CH2][Sn]([Cl])([Cl])[Cl]`, the T/C is, setting by setting: (dose: 6.25 mg/kg/injection, schedule: Q01DX009 (ip), vehicle: saline) 110 % of control; (dose: 12.5 mg/kg/injection, schedule: Q01DX009 (ip), vehicle: saline) 99 % of control.

With `CCN1CCCC(Nc2cc(C)nc(Nc3nc4cc(Cl)c(Cl)cc4[nH]3)n2)C1` (stereo unspecified), the T/C (dose: 12.5 mg/kg/injection, schedule: Q01DX009 (ip), vehicle: Klucel (hydroxypropylcellulose) (HPC)) was 90 % of control.

For `O=c1cccccc1Cl`, the T/C is, setting by setting: under setting [10], 104 % of control; under setting [11], 101 % of control.

`COc1cccc2c1C(=O)c1c(O)c3c(c(O)c1C2=O)C[C@@](O)(C(=O)CO)C[C@@H]3OC1CC(N2CCCCC2)C(O)C(C)O1` (stereo partly specified): the T/C (dose: 0.78 mg/kg/injection, schedule: Q01DX009 (ip), vehicle: water) was 151 % of control; the T/C (dose: 1.2 mg/kg/injection, schedule: Q04DX003 (ip), vehicle: water) was 100 % of control; the T/C (dose: 1.56 mg/kg/injection, schedule: Q01DX009 (ip), vehicle: water) was 184 % of control; the T/C (dose: 2.4 mg/kg/injection, schedule: Q04DX003 (ip), vehicle: water) was 113 % of control; the T/C (dose: 3.13 mg/kg/injection, schedule: Q01DX009 (ip), vehicle: water) was 190 % of control; the T/C (dose: 4.7 mg/kg/injection, schedule: Q04DX003 (ip), vehicle: water) was 106 % of control. In addition, the T/C is, setting by setting: (dose: 9.4 mg/kg/injection, schedule: Q04DX003 (ip), vehicle: water) 155 % of control; (dose: 37.5 mg/kg/injection, schedule: Q04DX003 (ip), vehicle: water) 87 % of control.

As to `Cc1nn(C(=O)c2ccncc2)c(C)c1N=Nc1ccc(-c2ccc(N)cc2)cc1`, the T/C is 99 % of control under setting [14]; 90 % of control under setting [15]; 90 % of control (dose: 200.0 mg/kg/injection, schedule: Q01DX009 (ip), vehicle: Klucel (hydroxypropylcellulose) (HPC)).
